# Measured values reported in patent US6416738B1, “Pretargeting methods and compounds” (NeoRx Corporation, priority 1973, dated 2002).
# Ends that are not written are not given here.
# Columns and labels:
# [1] = molecular target: T1, Streptavidin-agarose beads (Streptomyces avidinii, UniProt P22629); test: Streptavidin-agarose bead binding; settings: for Pellet: radioactivity bound to streptavidin-agarose beads; for Supernatant: radioactivity not bound to streptavidin-agarose beads
# T1 construct: purchased Sigma S-1638
# Procedure: 100 μl of 0.2 M sodium carbonate buffer, pH 9.2, was added to 2 mg (in 1.00 ml PBS) of PIP-125-labeled orosomucoid and to 2 mg PIP-125-labeled asialoorosomucoid. 60 μl of a 1.85 mg/ml solution of NHS-amino caproate biotin in DMSO was then added to each compound. The reaction mixtures were vortexed and allowed to sit at room temperature for 45 minutes. The material was purified by size exclusion column chromatography (PD-10, Pharmacia) and eluted with PBS. 1.2 ml fractions were taken, with fractions 4 and 5 containing the majority of the applied radioactivity (>95%). Streptavidin-agarose beads (Sigma S-1638) or -pellets were washed with PBS, and 20 μg of each biotinylated, radiolabeled protein was added to 400 μl of beads and 400 μl of PBS, vortexed for 20 seconds and centrifuged at 14,000 rpm for 5 minutes. The supernatant was removed and the pellets were washed with 400 μl PBS. This wash procedure was repeated twice more, and the combined supernatants were assayed by placing them in a dosimeter versus their respective pellets.
# [2] = Blood clearance and limited biodistribution of orosomucoid and asialoorosomucoid; settings: for blood level: I-125-labeled protein i.v.
# Procedure: The asialoorosomucoid and orosomucoid starting material were radiolabeled with I-125 using PIP technology, as described in Example IV above.
# In addition, two animals receiving each compound were sacrificed at 5 minutes post-administration and limited biodistributions were performed.
# HA peptide = settings: physiological conditions, concentrations as low as 10^−13 M; cited from earlier work
# LS-180 tumor xenografts [3] = test: Tumor uptake of PIP-biocytin after NR-LU-10-streptavidin; assay type: in vivo, nude mice
# Procedure: The following data are based on experimentation with tumored nude mice (100 mg LS-180 tumor xenografts implanted subcutaneously 7 days prior to study) that received, at time 0, 200 μg of I-125 labeled NR-LU-10-Streptavidin conjugate (950 pmol), as discussed in Example XI above. At 24 hours, the mice received an i.v. injection of PIP-I-131-biocytin (40 μCi) and an amount of cold carrier PIP-I-127 biocytin corresponding to doses of 42 μg (69,767 pmol), 21 μg (34,884 pmol), 5.7 μg (9468 pmol), 2.85 μg (4734 pmol) or 0.5 μg (830 pmol).
# LS-180 tumor xenografts [4] = test: Two-step pretargeting with NR-LU-10-avidin and 131I-PIP-biocytin; assay type: in vivo, nude mice; settings: 200 μg NR-LU-10-avidin at t=0, 42 μg 131I-PIP-biocytin at t=36 h
# Procedure: ^131I-PIP-biocytin was evaluated in a two-step pretargeting procedure in tumor-bearing mice. […] At t=0, the mice were injected with 200 μg of NR-LU-10-avidin conjugate labeled with ^125I using PIP-NHS (see Example IV.A.). At t=36 h, the mice received 42 μg of ^131I-PIP-biocytin. […] The described radiohalogenated biotin compounds are amenable to the same types of modifications described in Example VI above for ^186Re-chelate-biotin conjugates. In particular, the following PIP-polylysine-biotin molecule is made by trace labeling polylysine with ^125I-PIP, followed by extensive biotinylation of the polylysine. [drawing 47]
# [5] = Time dependent cleavage of DOTA-biotin conjugates in serum (% avidin binding); assay type: in vitro ADME
# Description: The difference in serum stability between DOTA-LC-biotin and DOTA-SC-biotin might be explained by the fact that the SC derivative contains an aromatic amide linkage in contrast to the aliphatic amide linkage of the LC derivative, with the aliphatic amide linkage being more readily recognized by enzymes as a substrate therefor. This argument cannot apply to biotinidase, however, because biotinidase very efficiently cleaves aromatic amides. In fact, it is recognized that the simplest and most commonly employed biotinidase activity measuring method uses N-(d-biotinyl)-4-aminobenzoate (BPABA) as a substrate, with the hydrolysis of BPABA resulting in the liberation of biotin and 4-aminobenzoate (PABA). See, for example, B. Wolf, et al., “Methods in Enzymology,” pp. 103-111, Academic Press Inc., 1990. Consequently, one would predict that DOTA-SC-biotin, like its LC counterpart, would be a biotinidase substrate. […] A series of DOTA-biotin conjugates was therefore synthesized by the present inventors to determine which structural features conferred serum stability to the conjugates.
# LS-180 tumor = test: Two-step pretargeting in LS-180 animal model
# Procedure: and perform biodistributions at 2, 6, 24, 72, 120 hours after injection of radiolabeled biotinyl molecule
# [6] = system: LS-180 human colon tumor xenografts; test: Three-step pretargeting in LS-180 xenograft model; settings: for tumor uptake: antibody at time 0, avidin at 24 h
# Description: The experimental protocol was as follows:
# The three radiolabels employed in this protocol are capable of detection in the presence of each other. It is also noteworthy that the sizes of the three elements involved are logarithmically different—antibody≅150,000; avidin≅66,000; and biotin≅1,000.
# [7] = Excretion of neutral MAMA chelate-biotin conjugate; settings: in vivo
# Description: Although the net overall charge of the conjugate is neutral, the polycarboxylate nature of the molecule generates regions of hydrophilicity and hydrophobicity. By altering the number and nature of the carboxylate groups within the conjugate, excretion may be shifted from kidney to gastrointestinal routes. For instance, neutral compounds are generally cleared by the kidneys; anionic compounds are generally cleared through the GI system.
# T1 sequence (P22629 25-183): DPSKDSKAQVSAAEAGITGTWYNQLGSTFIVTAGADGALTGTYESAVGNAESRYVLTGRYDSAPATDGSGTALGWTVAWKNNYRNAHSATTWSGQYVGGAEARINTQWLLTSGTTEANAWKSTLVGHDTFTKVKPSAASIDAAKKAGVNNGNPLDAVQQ
compound,measurement,setting,value
asialoorosomucoid: orosomucoid treated with neuraminidase,Pellet,[1],8.0%
same,Supernatant,[1],92%
same,uptake in the liver,[2]; 5 minutes post-administration,86%
same,blood level,[2]; 5 minutes post-administration,0.4%
same,blood clearance,[2]; 5 minutes to 4 hours post-administration,clearing more rapidly than its orosomucoid counterpart
pGlu-Pto-Pro-Gly-Gly-Ser-Lys-Val-Ile-Leu-Phe (PGGSKVILF; not fully specified (N-terminus); printed as pGlu-Pto-Pro-Gly-Gly-Ser-Lys-Val-Ile-Leu-Phe) [HA peptide],dissociation of HA dimer into monomers,HA peptide,does not dissociate into monomers
"O=C(CCCCC1SCC2NC(=O)NC21)NCCCC[C@H](NC(=O)c1ccc([125I])cc1)C(=O)O (some centres unmarked) [PIP-Biocytin, p-[I-125]iodobenzoylbiocytin]",peak tumor uptake,"LS-180 tumor xenografts [3]; 0.5 μg dose, 120 hour time point (96 hours after PIP-biocytin)",85.0 % ID/G
same,tumor localization,"LS-180 tumor xenografts [3]; three highest doses (42, 21, 5.7 μg), 4 hours after PIP-biocytin injection",about 600 pmol/g
same,131I-PIP-biocytin molecules per avidin molecule at tumor,LS-180 tumor xenografts [4],≈ 1.5
same,% Avidin Binding,[5]; 5 Minutes at 37° C.,75%
same,% Avidin Binding,[5]; 15 Minutes at 37° C.,57%
same,% Avidin Binding,[5]; 30 Minutes at 37° C.,31%
same,tumor uptake,"LS-180 tumor; 40 hour time point, PIP-BT at 37 hours following LU-10-StrAv",above 500 pMOL/G
same,peak tumor uptake,LS-180 tumor; 45 hours post-LU-10-StrAv administration,about 700 pMOL/G
"Avidin: avidin (MW≈66 kD), radiolabeled with 131I/PIP-NHS",tumor uptake,[6]; at 25 h,about 250 pmol/g
same,tumor uptake,[6]; at 32 h,~150 pmol/g
same,tumor uptake,[6]; at 48 h,~50 pmol/g
same,tumor uptake,[6]; at 120 h,~0 pmol/g
same,injected dose cleared from the blood,"[6]; mouse, in vivo",greater than 90%
CN(CCSCc1ccccc1)CC(CCC(=O)NCCNC(=O)CC1SCC2NC(=O)NC21)NC(=O)CS (centres unmarked) [neutral MAMA chelate-biotin conjugate],kidney excretion,[7],superior kidney excretion
orosomucoid: human alpha-1 acid glycoprotein [reference compound],Pellet,[1],10%
same,Supernatant,[1],90%
same,blood level,[2]; 5 minutes post-administration,78%
"O=C(O)CN1CCN(CCOO)CCN(CCOO)CCN(CC(=O)O)C(Cc2ccc(NC(=O)CCCCC3SCC4NC(=O)NC43)cc2)C1 (centres unmarked) [Y-90-SC DOTA-Biotin, metal not drawn]",% Avidin Binding,[5]; 20 Hours at 37° C.,60%
same,% Avidin Binding,[5]; 60 Minutes at 37° C.,98%
same,serum stability,[5]; in comparison to DOTA-LC-biotin,significantly improved serum stability
